# Experimental data: publication PMC9918900, “New Succinimide–Thiazolidinedione Hybrids as Multitarget Antidiabetic Agents: Design, Synthesis, Bioevaluation, and Molecular Modelling Studies” (Molecules, 2023)
# Like-named read-outs stand apart in the source and are kept apart here.
# Columns and labels:
# [1] = molecular target: T1, human DPP-4 enzyme (Homo sapiens, UniProt P27487); assay: DPP-4 activity bioassay; assay type: biochemical; conditions: for inhibition at 31.25 µM / inhibition at 62.5 µM / inhibition at 125 µM / inhibition at 250 µM: read-out: DPP4 (inhibition) (converted); for inhibition at 500 µM: read-out: DPP4 (inhibition); for IC50: read-out: IC50 DPP4
# T1 construct: purchased
# T1 sequence (P27487 whole entry): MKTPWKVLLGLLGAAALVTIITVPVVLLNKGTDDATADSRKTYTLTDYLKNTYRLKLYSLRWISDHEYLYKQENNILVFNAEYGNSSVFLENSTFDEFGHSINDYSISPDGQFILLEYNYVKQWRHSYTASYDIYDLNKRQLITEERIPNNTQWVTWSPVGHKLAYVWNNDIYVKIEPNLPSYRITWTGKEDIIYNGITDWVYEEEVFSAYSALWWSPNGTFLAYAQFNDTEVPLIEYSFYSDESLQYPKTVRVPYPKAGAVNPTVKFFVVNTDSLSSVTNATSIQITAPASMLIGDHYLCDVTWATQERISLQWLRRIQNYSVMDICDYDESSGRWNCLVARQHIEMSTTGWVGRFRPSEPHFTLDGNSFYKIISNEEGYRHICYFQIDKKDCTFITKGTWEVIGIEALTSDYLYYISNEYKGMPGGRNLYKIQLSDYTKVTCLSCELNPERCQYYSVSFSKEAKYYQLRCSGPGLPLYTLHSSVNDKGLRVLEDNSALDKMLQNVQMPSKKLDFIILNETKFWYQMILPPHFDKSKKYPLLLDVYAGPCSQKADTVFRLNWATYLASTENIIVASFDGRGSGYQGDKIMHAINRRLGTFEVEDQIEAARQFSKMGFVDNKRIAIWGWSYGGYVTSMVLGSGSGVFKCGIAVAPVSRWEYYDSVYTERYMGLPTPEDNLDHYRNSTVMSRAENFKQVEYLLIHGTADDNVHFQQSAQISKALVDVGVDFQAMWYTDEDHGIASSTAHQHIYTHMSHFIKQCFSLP
# Experimental: All succinimides and thiazolidinedione hybrids were tested for DPP-4 inhibitory effects on a human DPP-4 enzyme using the methodology published before. The DPP-4 kit was used to measure the inhibition. L-thiazolidine (P32/98) was included as a reference. The hybrids and DPP-4 enzyme were both adulterated 1/50 in the assay buffer (PH = 7.4, 25 mM Tris). Following that, a microplate well was filled with 5 μL of assay buffer, 3 μL of enzyme solution, and 2 μL of adequately diluted test chemical solutions. After a 12-min incubation period at 37.5 °C, a diluted substrate solution of 25 μL was added into the solution. A multi-mode reader was used to assess the fluorescence. […] PRISM5 was used to calculate the IC50 values and compare the inhibition ratio to the control without the inhibitor.
# [2] = molecular target: α-glucosidase; assay: in vitro α-glucosidase inhibitory activity; assay type: biochemical, Homo sapiens
# Experimental: The inhibitory analyses for α-glucosidase were carried out in accordance with the protocols reported in the literature; the inhibitory activities of the synthesized hybrids were calculated utilizing screening assay tools.
# [3] = molecular target: T2, α-amylase (Homo sapiens, UniProt P04746); assay: in vitro α-amylase inhibitory activity; assay type: biochemical
# T2 sequence (P04746 16-511): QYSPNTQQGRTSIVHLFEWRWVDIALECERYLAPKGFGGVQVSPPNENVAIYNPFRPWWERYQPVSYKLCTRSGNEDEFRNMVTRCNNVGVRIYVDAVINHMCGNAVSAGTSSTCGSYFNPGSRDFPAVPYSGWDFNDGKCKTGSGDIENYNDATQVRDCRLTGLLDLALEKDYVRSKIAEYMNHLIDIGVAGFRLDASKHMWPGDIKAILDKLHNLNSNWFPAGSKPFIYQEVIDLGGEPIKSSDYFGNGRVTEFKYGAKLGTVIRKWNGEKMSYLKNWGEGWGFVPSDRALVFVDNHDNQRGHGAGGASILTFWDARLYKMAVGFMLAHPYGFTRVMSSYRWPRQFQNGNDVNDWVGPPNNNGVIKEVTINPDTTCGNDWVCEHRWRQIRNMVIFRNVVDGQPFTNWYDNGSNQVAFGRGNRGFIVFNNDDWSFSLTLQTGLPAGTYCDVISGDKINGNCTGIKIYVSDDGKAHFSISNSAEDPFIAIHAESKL
# Experimental: The test samples were added in alpha-amylase solution. The enzyme solution was prepared with enzyme and buffer solution. The mixture of the samples and enzyme was then incubated. Then, starch and dinitrosalicylic acid solution was added. The same was performed for both test compounds and the standard drug. […] The percent alpha-amylase inhibition activity and its IC50 values were calculated and confirmed as per the previous procedure.
# [4] = molecular target: T3, PTP1B (Homo sapiens, UniProt P18031); assay: PTP1B assay (pNPP substrate); assay type: biochemical
# T3 sequence (P18031 1-435): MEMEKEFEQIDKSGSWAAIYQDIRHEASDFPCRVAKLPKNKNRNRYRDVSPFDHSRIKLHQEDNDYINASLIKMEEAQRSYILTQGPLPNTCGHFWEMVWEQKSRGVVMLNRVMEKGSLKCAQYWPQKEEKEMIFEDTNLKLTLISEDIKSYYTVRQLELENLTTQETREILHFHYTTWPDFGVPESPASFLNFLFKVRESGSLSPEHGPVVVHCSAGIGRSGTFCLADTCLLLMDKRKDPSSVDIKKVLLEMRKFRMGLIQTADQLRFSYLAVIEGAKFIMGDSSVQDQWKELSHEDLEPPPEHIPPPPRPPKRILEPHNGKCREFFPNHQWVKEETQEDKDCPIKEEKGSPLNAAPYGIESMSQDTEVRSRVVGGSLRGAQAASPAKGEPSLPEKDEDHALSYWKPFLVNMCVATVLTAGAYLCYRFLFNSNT
# Experimental: The aforementioned newly synthesize succinimides and thiazolidinedione hybrids were tested against the PTP1B enzyme to determine their ability to inhibit the negative regulation of insulin as well as leptin signaling. The PTP1B test was performed with a small modification to the method described in the publications. The enzyme efficiency was evaluated using […] (pNPP) as a substrate. For the buffer solution, 0.5 millimolar (mM) of ethylene diamine tetraacetic acid (EDTA), 1 mM of mercaptoethanol, 0.55 mM of dithiothreitol (DTT), and 12.49 mM of TRIS hydrochloride (ph = 7.4) were used. The experiment was carried out by mixing 10.0 μL of the test compound solutions with 20.0 μL of the enzyme (1 μg/mL), subsequently injecting 40.0 μL of 4.0 mM 4-nitrophenyl dihydrogen phosphate in 130.5 μL of the prescribed buffer in a microplate well at 37 °C for 10 min. pNP was formed during the enzymatic process, which was monitored for 30 min. The IC50 values were derived using a non-linear regression analysis of the fraction of the product generated vs. the log of the inhibitory concentration.
# [5] = 31.25 µM, read-out: % α-Amylase Inhibition (converted)
# [6] = 62.5 µM, read-out: % α-Amylase Inhibition (converted)
# [7] = 125 µM, read-out: % α-Amylase Inhibition (converted)
# [8] = 250 µM, read-out: % α-Amylase Inhibition (converted)
# [9] = 500 µM, read-out: % α-Amylase Inhibition
# [10] = read-out: % α-Amylase Inhibition
Structure (SMILES),inhibition at 31.25 µM [1],inhibition at 62.5 µM [1],inhibition at 125 µM [1],inhibition at 250 µM [1],inhibition at 500 µM [1],IC50 [1],IC50 [2],% α-Glucosidase Inhibition ([2]; 31.25 µM),% α-Glucosidase Inhibition ([2]; 62.5 µM),% α-Glucosidase Inhibition ([2]; 125 µM),% α-Glucosidase Inhibition ([2]; 250 µM),% α-Glucosidase Inhibition ([2]; 500 µM),IC50 [3],"inhibition at 31.25 µM [3, 5]","inhibition at 62.5 µM [3, 6]",inhibition at 31.25 µM [4],inhibition at 62.5 µM [4],inhibition at 125 µM [4],inhibition at 250 µM [4],inhibition at 500 µM [4],also measured
CC(C)(/C=C1\SC(=O)N(C(=O)CN2CCOCC2)C1=O)[C@@H]1CC(=O)NC1=O [10a],67.5%,72.5%,77.2%,82.5%,87.45 ± 0.59%,5.38 µM,16.5 µM,54.56 ± 1.73%,65.44 ± 0.58%,72.93 ± 0.67%,75.58 ± 0.63%,79.49 ± 0.6%,21.9 µM,54.6%,57.5%,62.9%,69.2%,75.1%,82.6%,88.61 ± 0.43%,"inhibition at 125 µM [3, 7]: 72.8%; inhibition at 250 µM [3, 8]: 77.6%; inhibition at 500 µM [3, 9]: 82.61 ± 0.77%; IC50 [4]: 12 µM"
CN1C(=O)C[C@@H](C(C)(C)/C=C2\SC(=O)N(C(=O)CN3CCOCC3)C2=O)C1=O [10b],54.3%,62.7%,69.4%,75.8%,81.3 ± 1.42%,20.5 µM,27.4 µM,51.72 ± 0.66%,57.68 ± 0.49%,70.60 ± 0.46%,75.62 ± 0.40%,79.48 ± 0.74%,21.2 µM,48.5%,65.5%,57.2%,65.8%,72.8%,77.1%,85.3 ± 2.87%,"inhibition at 125 µM [3, 7]: 70.5%; inhibition at 250 µM [3, 8]: 74.7%; inhibition at 500 µM [3, 9]: 79.37 ± 0.69%; IC50 [4]: 16.8 µM"
CC(C)(/C=C1\SC(=O)N(C(=O)CN2CCOCC2)C1=O)[C@@H]1CC(=O)N(c2ccccc2)C1=O [10c],57.4%,62.6%,67.4%,72.6%,77.4 ± 1.51%,12.9 µM,25.6 µM,62.72 ± 1.01%,65.08 ± 0.47%,71.42 ± 0.43%,76.58 ± 1.12%,81.53 ± 0.71%,28.3 µM,62.4%,67.6%,53.5%,63.4%,69.3%,73.4%,79.4 ± 1.04%,"inhibition at 125 µM [3, 7]: 74.3%; inhibition at 250 µM [3, 8]: 81.7%; inhibition at 500 µM [3, 9]: 88.6 ± 1.12%; IC50 [4]: 19 µM"
COc1ccc(N2C(=O)C[C@@H](C(C)(C)/C=C3\SC(=O)N(C(=O)CN4CCOCC4)C3=O)C2=O)cc1 [10e],61.3%,67.3%,74.5%,82.5%,88.5 ± 2.06%,14.7 µM,13.2 µM,52.58 ± 0.63%,74.94 ± 1.13%,79.84 ± 0.30%,81.08 ± 0.47%,86.44 ± 0.58%,9.66 µM,73.4%,78.2%,56.4%,63.5%,67.2%,75.8%,83.51 ± 0.54%,"inhibition at 125 µM [3, 7]: 82.5%; inhibition at 250 µM [3, 8]: 88.6%; inhibition at 500 µM [3, 9]: 92.7 ± 1.3%; IC50 [4]: 19.5 µM"
"C[C@H]1O[C@H](O[C@H]2[C@H](O)[C@@H](O)[C@@H](O[C@H]3[C@H](O)[C@@H](O)C(O)O[C@@H]3CO)O[C@@H]2CO)[C@H](O)[C@@H](O)[C@@H]1N[C@H]1C=C(CO)[C@@H](O)[C@H](O)[C@H]1O (some centres unmarked) [Acarbose, acarbose, reference compound]",,,,,,,,71.22 ± 0.47%,76.44 ± 0.28%,80.90 ± 1.11%,,94.40 ± 0.03%,,,,,,,,,"inhibition at 31.25 µM [3, 10]: 70.8%; inhibition at 62.5 µM [3, 10]: 75.4%; inhibition at 125 µM [3, 10]: 80.6%; inhibition at 250 µM [3, 10]: 86.5%; inhibition at 500 µM [3, 10]: 93.1 ± 1.04%"
"C[C@H]1[C@H](C)CC[C@]2(C(=O)O)CC[C@]3(C)C(=CC[C@@H]4[C@@]5(C)CC[C@H](O)C(C)(C)[C@@H]5CC[C@]43C)[C@H]12 [Ursolic acid, ursolic acid, reference compound]",,,,,,,,,,,,,,,,71.8%,76.4%,81.6%,87.5%,94.1 ± 1.04%,
